Measured values: patent US20230406865A1, “CRYSTAL FORM OF FREE BASE OF INHIBITOR CONTAINING BICYCLIC RING DERIVATIVE AND PREPARATION METHOD AND APPLICATION OF CRYSTAL FORM” (SHANGHAI HANSOH BIOMEDICAL CO., LTD., priority 2020, published 2023)

Columns and labels:
RET kinase = molecular target: T1, RET kinase (Homo sapiens, UniProt P07949); experiment: HTRF kinase activity inhibition, RET wild-type; type: biochemical; settings: ATP at Km
T1 construct: purchased Carna 08-159
Excerpt: 2.2 Experimental Reagents: • RET enzyme was purchased from Carna Company, and the article number was 08-159; • RET M918T enzyme was purchased from Carna Company, and the article number was 08-508; • KIF5B-RET was purchased from SignalChem Company, the article number was R02-19FG-05; • CCDC6-RET was purchased from SignalChem Company, the article number was R02-19BG-05; • RET V804M enzyme was purchased from Thermofisher Company, and the article number was PV6223; • RET V804L enzyme was purchased from Thermofisher Company, and the article number was PV4397; • HTRF KinEASE-TK kit was purchased from Cisbio Company, and the article number was 62TK0PEC; • ATP was purchased from Thermofisher Company, and the article number was PV3227; • 384-well plate was purchased from PerkinElmer Company, and the article number was 6007290.
In this experiment, a homogeneous time-resolved fluorescence (HTRF) method was used for the detection of compounds on RET kinase activity.

[1] = system: TT cells (MTC, RET C634W); experiment: Inhibition of proliferation of TT cells (CellTiter-Glo, 72 h); type: cell-based; settings: Homo sapiens
Procedure, shortened: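 TT cells seeded overnight, then exposed to compound dilutions for 72 h at 37 °C, 5% CO2, with a solvent control. Viability read by CellTiter-Glo luminescence; IC50 from nonlinear regression of inhibition rate versus concentration.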

Ba/F3 KIF5B-RET cells = molecular target: T2, Ba/F3 KIF5B-RET cells (Homo sapiens, UniProt P07949); experiment: Inhibition of proliferation of Ba/F3 KIF5B-RET cells (CellTiter-Glo); type: cell-based; settings: 72 to 144 hours
T2 construct: fused on or other part: P33176 (Kinesin-1 heavy chain)
Experimental: When Ba/F3 KIF5B-RET cells were cultured to the appropriate cell density, cells were collected, and the cells were adjusted to the appropriate cell concentration using complete medium, and the cell suspension was spread in a 96-well plate, 90 μL per well, and placed in the wall of a 37° C., 5% CO2 incubator overnight; compound solutions of different concentrations were prepared using DMSO and culture medium; a solvent control was set, and the compound solution was added to a 96-well plate with […] at 37° C. in a 5% CO2 incubator for 72 to 144 hours, CellTiter-Glo solution was added thereto and mixed well by shaking, incubated for 10 minutes in the dark, and read by BioTek Synergy H1 microplate reader.
The IC50 values were obtained by using the luminescence signal values to calculate the inhibition rate, the concentrations and the inhibition rates were fitted to a nonlinear regression curve using Graphpad Prism software.

KDR kinase = molecular target: T3, KDR kinase (Homo sapiens, UniProt P35968); experiment: HTRF kinase activity inhibition, KDR; type: biochemical; settings: for IC50: HTRF, ATP at Km; for Ratio (KDR/RET): KDR IC50 / RET IC50
T3 construct: purchased Carna 08-191
Excerpt: 2.2 Experimental Reagents: • KDR kinase was purchased from Carna Company, and the article number was 08-191; • HTRF KinEASE-TK kit was purchased from Cisbio Company, and the article number was 62TK0PEC; • ATP was purchased from Thermofisher Company, and the article number was PV3227; • 384-well plate was purchased from PerkinElmer Company, and the article number was 6007290.
In this experiment, the homogeneous time-resolved fluorescence (HTRF) method was used for the detection of compounds on KDR kinase activity.

[2] = Balb/C mouse pharmacokinetics, oral 5 mg/kg; type: in vivo, Balb/C mice; settings: male, p.o. 5 mg/kg, plasma; for MRT: read-out: Average residence time MRT; for Cmax: read-out: Blood concentration Cmax; for AUC(0-t): read-out: Curve area AUC0-t; for AUC(0-inf): read-out: Curve area AUC0-∞; for half-life: read-out: Half-life t1/2 (converted); for Tmax: read-out: Peak time tmax
Procedure, shortened: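 Male Balb/C mice (6 per compound) were fasted overnight and dosed in 0.5% CMC-Na (1% Tween80) solution or suspension. EDTA-K2 plasma was sampled at 0, 0.5, 1, 2, 4, 6, 8 and 24 h. Compound levels were measured by LC/MS/MS after acetonitrile precipitation, and PK parameters were derived from the plasma profiles.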

T1 sequence (P07949 29-1114): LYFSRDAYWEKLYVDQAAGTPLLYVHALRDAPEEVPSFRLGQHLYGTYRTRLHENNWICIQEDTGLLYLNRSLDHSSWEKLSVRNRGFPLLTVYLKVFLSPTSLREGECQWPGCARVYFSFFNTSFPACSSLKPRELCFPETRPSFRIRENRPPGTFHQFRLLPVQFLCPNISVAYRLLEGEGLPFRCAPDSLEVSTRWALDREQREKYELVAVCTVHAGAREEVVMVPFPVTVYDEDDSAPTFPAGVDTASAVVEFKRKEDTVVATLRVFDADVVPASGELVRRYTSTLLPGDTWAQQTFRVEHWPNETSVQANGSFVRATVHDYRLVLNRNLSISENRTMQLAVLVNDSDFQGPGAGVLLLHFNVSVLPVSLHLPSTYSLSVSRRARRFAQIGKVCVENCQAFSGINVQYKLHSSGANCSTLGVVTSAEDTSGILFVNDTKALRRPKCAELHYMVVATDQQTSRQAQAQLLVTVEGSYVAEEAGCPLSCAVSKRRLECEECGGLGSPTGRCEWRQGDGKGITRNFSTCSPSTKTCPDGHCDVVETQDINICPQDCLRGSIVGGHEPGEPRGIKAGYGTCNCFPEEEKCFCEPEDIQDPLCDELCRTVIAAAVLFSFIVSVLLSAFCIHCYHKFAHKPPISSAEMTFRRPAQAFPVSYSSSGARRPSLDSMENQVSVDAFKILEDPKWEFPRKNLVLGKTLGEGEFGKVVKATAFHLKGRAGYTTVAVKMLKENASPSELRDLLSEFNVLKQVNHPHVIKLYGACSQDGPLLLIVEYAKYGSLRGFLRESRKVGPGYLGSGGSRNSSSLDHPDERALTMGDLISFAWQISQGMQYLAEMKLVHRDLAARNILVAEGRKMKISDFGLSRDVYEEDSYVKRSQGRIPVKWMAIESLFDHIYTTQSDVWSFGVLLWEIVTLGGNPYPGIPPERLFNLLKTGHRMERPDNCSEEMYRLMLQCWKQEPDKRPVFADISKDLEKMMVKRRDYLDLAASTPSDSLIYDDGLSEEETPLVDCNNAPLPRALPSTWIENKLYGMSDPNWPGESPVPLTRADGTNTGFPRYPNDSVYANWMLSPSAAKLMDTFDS
T3 sequence (P35968 20-1356): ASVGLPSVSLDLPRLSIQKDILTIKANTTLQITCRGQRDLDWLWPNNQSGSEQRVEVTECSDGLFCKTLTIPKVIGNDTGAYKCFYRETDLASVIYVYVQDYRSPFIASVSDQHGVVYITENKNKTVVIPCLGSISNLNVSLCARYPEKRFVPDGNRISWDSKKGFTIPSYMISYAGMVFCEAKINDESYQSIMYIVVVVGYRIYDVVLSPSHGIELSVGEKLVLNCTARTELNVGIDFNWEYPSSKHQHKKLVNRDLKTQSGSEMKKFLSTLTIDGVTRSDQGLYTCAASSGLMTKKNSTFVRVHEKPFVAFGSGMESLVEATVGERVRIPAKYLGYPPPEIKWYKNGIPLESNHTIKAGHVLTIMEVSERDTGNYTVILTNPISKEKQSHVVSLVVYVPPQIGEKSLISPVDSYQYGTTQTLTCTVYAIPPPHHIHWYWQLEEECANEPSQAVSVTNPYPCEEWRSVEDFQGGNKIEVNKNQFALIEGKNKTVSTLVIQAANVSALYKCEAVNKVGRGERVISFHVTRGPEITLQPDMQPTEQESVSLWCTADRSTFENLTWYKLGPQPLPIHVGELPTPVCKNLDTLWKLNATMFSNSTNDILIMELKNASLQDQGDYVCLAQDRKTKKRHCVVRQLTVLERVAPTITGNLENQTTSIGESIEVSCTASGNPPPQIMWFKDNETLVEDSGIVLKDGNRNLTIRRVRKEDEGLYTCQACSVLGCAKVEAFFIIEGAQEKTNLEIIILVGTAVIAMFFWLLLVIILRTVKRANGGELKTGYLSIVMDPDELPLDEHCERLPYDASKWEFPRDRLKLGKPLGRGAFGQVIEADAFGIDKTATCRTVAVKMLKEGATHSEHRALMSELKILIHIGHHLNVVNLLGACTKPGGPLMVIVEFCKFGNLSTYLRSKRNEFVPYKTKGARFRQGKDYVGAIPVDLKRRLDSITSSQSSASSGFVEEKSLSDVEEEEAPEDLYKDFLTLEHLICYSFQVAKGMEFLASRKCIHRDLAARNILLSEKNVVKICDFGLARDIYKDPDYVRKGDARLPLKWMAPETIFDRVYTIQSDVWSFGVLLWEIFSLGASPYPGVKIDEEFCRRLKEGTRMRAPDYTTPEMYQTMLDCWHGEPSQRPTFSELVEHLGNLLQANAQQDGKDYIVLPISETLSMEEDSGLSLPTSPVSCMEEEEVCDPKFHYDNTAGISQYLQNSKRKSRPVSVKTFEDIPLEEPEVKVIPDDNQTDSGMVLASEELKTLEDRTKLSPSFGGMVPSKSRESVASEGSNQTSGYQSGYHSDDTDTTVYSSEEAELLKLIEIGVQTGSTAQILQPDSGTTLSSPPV
T2 sequence (P07949 whole entry, change not shown, the tested form may be a part): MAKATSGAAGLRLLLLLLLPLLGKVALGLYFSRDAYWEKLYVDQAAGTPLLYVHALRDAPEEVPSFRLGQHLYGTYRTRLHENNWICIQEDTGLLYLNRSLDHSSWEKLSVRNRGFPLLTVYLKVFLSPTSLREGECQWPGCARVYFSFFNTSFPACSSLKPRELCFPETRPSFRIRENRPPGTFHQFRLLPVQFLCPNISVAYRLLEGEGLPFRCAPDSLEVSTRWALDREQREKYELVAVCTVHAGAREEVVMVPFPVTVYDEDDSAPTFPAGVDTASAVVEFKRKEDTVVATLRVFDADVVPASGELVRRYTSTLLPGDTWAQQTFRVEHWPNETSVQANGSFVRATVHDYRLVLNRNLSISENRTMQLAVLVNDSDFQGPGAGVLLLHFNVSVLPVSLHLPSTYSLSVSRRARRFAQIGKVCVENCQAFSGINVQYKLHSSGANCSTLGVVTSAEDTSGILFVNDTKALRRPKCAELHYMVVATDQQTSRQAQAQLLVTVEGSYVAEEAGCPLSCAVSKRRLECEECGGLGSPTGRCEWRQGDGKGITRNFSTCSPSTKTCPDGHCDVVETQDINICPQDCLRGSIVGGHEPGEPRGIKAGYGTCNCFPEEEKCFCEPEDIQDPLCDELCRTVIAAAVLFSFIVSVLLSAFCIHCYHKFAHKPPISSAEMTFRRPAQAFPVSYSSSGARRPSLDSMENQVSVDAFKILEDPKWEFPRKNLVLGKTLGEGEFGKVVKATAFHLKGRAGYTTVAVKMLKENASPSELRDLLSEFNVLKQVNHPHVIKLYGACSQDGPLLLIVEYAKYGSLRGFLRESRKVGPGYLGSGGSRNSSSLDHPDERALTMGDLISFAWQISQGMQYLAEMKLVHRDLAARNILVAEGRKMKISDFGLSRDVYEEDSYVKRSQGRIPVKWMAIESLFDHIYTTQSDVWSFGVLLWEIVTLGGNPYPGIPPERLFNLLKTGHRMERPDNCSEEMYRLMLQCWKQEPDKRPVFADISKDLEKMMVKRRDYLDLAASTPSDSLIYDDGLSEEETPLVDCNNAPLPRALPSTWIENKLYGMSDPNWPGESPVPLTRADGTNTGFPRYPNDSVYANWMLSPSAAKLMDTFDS

Row | Structure (SMILES) | IC50 (RET kinase) [nM] | IC50 [1] [nM] | IC50 (Ba/F3 KIF5B-RET cells) [nM] | IC50 (KDR kinase) [nM] | Ratio (KDR/RET) (KDR kinase) | MRT [2] [h] | Cmax [2] [ng/mL] | AUC(0-t) [2] [ng·h/mL] | AUC(0-inf) [2] [ng·h/mL] | half-life [2] [h] | Tmax [2] [h]
1 | CNC(=O)C12CC(COc3cc(-c4ccc(N5CC6CC(C5)N6Cc5ccc(OC)nc5)nc4)c4c(C#N)cnn4c3)(C1)C2 [Embodiment 67, 3-(((3-Cyano-4-(6-(6-((6-methoxypyridin-3-yl)methyl)-3,6-diazabicyclo[3.1.1]heptan-3-yl)pyridin-3-yl)pyrazolo[1,5-a]pyridin-6-yl)oxy)methyl)-N-methylbicyclo[1.1.1]pentane-1-carboxamide] | 0.25 | 6.84 | 5.33 | 4 | 16 |  |  |  |  |  | 
2 | CC1(O)CN(c2cc(-c3ccc(N4CCC(C)(NC(=O)c5ncccc5Cl)CC4)nc3)c3c(C#N)cnn3c2)C1 [Embodiment 95, 3-Chloro-N-(1-(5-(3-cyano-6-(3-hydroxy-3-methylazetidin-1-yl)pyrazolo[1,5-a]pyridin-4-yl)pyridin-2-yl)-4-methylpiperidin-4-yl)picolinamide] | 1 | 15 | 22.5 | 24 | 24 |  |  |  |  |  | 
3 | COc1ncc(CN2C3CC2CN(c2ccc(-c4cc(OCC5CC(C)(O)C5)cn5ncc(C#N)c45)cn2)C3)cc1F (stereo not drawn) [Embodiment 72, 4-(6-(6-((5-Fluoro-6-methoxypyridin-3-yl)methyl)-3,6-diazabicyclo[3.1.1]heptan-3-yl)pyridin-3-yl)-6-((cis-3-hydroxy-3-methylcyclobutyl)methoxy)pyrazolo[1,5-a]pyridine-3-carbonitrile] | 0.37 | 13.9 | 8.59 | 7.4 | 20 |  |  |  |  |  | 
4 | COc1ccc(CN2C3CC2CN(c2ccc(-c4cc(OCC56CC(C(N)=O)(C5)C6)cn5ncc(C#N)c45)cn2)C3)cn1 [Embodiment 66, 3-(((3-Cyano-4-(6-(6-((6-methoxypyridin-3-yl)methyl)-3,6-diazabicyclo[3.1.1]heptan-3-yl)pyridin-3-yl)pyrazolo[1,5-a]pyridin-6-yl)oxy)methyl)bicyclo[1.1.1]pentane-1-carboxamide] | 0.25 | 5.18 | 14.8 | 3 | 12 |  |  |  |  |  | 
5 | COc1ncc(CN2C3CC2CN(c2ccc(-c4cc(OCC5(C#N)CC5)cn5ncc(C#N)c45)cn2)C3)cc1F [Embodiment 55, 6-((1-Cyanocyclopropyl)methoxy)-4-(6-(6-((5-fluoro-6-methoxypyridin-3-yl)methyl)-3,6-diazabicyclo[3.1.1]heptan-3-yl)pyridin-3-yl)pyrazolo[1,5-a]pyridine-3-carbonitrile] | 0.31 | 28.5 | 19.6 | 37.5 | 121 | 6.51 | 1940 | 21600 | 22100 | 4.26 | 2
6 | COc1ccc(CN2C3CC2CN(c2ccc(-c4cc(C#C[C@@H](C)O)cn5ncc(C#N)c45)cn2)C3)cn1 [Embodiment 22, 6-((R)-3-Hydroxybut-1-yn-1-yl)-4-(6-(6-((6-methoxypyridin-3-yl)methyl)-3,6-diazabicyclo[3.1.1]heptan-3-yl)pyridin-3-yl)pyrazolo[1,5-a]pyridine-3-carbonitrile] | 0.32 | 20.7 | 16.9 | 24 | 75 |  |  |  |  |  | 
7 | COc1ccc(CN2C3CC2CN(c2ccc(-c4cc(OCC[S+](C)[O-])cn5ncc(C#N)c45)cn2)C3)cn1 (centres unmarked) [Embodiment 1, 4-(6-(6-((6-Methoxypyridin-3-yl)methyl)-3,6-diazabicyclo[3.1.1]heptan-3-yl)pyridin-3-yl)-6-(2-(methylsulfinyl)ethoxy)pyrazolo[1,5-a]pyridine-3-carbonitrile] | 0.47 | 11.5 | 24.6 | 28 | 59 |  |  |  |  |  | 
8 | COc1ccc(CN2C3CC2CN(c2ccc(-c4cc(OCC56CC(C#N)(C5)C6)cn5ncc(C#N)c45)cn2)C3)cn1 [Embodiment 53, 6-((3-Cyanobicyclo[1.1.1]pentan-1-yl)methoxy)-4-(6-(6-((6-methoxypyridin-3-yl)methyl)-3,6-diazabicyclo[3.1.1]heptan-3-yl)pyridin-3-yl)pyrazolo[1,5-a]pyridine-3-carbonitrile] | 0.8 | 24.7 | 30.6 | 21.6 | 27 |  |  |  |  |  | 
9 | COc1ncc(CN2C3CC2CN(c2ccc(-c4cc(OCC5(C#N)CCOCC5)cn5ncc(C#N)c45)cn2)C3)cc1F [Embodiment 60, 6-((4-Cyanotetrahydro-2H-pyran-4-yl)methoxy)-4-(6-(6-((5-fluoro-6-methoxypyridin-3-yl)methyl)-3,6-diazabicyclo[3.1.1]heptan-3-yl)pyridin-3-yl)pyrazolo[1,5-a]pyridine-3-carbonitrile] | 0.58 | 28.4 | 18 | 257 | 445 | 5.56 | 3080 | 28000 | 28200 | 3.26 | 0.5
10 | COc1ccc(CN2C3CC2CN(c2ccc(-c4cc(OCC(C)(C)C#N)cn5ncc(C#N)c45)cn2)C3)cn1 [Embodiment 9, 6-(2-Cyano-2-methylpropoxy)-4-(6-(6-((6-methoxypyridin-3-yl)methyl)-3,6-diazabicyclo[3.1.1]heptan-3-yl)pyridin-3-yl)pyrazolo[1,5-a]pyridine-3-carbonitrile] | 0.76 | 29.3 | 28.9 | 70 | 92 | 5.84 | 1920 | 16100 | 16400 | 4.2 | 0.5
